Assay results taken from article PMC6379368, “Extracellular and intracellular small-molecule galectin-3 inhibitors” (Scientific Reports, 2019).

Key:
[1] = system: animal models of idiopathic pulmonary fibrosis (IPF); parameters: method as in PMID 27356186, PMID 28055102; settings: cited from earlier work
[2] = system: MCF-10A cells; experiment: MTT assay, MCF-10A normal-like breast cell line; assay type: cell-based; settings: 72 hours
Experimental: The MTT (3-[4,5-dimethylthiazol-2-yl]−2,5-diphenyltetrazolium bromide) assays were performed as previously described. In brief, cells were seeded in 96-well plates (6000 cells/well for MCF-7 and HCC1937 and 5000 cells for JIMT-1 in 180 μl fully-supplemented medium as described under Cell culture). The cells were incubated for 24 hours before addition of galectin-3 inhibitors. The inhibitors were diluted in PBS from their respective stock solution in DMSO (see Galectin-3 inhibitors) and used at final concentrations ranging from 0.04 to 40 μM. DMSO was adjusted to make the final DMSO concentration 0.2% for all inhibitor concentrations, including the control sample (no inhibitor). After 72 hours of treatment, 20 μl of 5 mg/ml MTT solution (in PBS) was added to each well and incubation continued for 1 hour at 37 °C. […] Absorbance was monitored at 540 nm using a Labsystems iEMS Reader MF (Labsystems Oy, Helsinki, Finland) and the software DeltaSoft II v.4.14 (Biometallics Inc., Princeton, NJ, USA). […]
(§1) Fluorescence anisotropy assay
(§2) The affinity between inhibitor 1 and the carbohydrate recognition domain (CRD) of galectin-8C and between inhibitor 3 and the CRD of galectin-2, -4N, -4C, 8C, and -9C was determined using the fluorescence anisotropy assay described in the main article. […]

[3] = system: PanC-1 cells; experiment: Growth curves, PanC-1; assay type: cell-based; settings: PanC-1, 10 µM
Experimental: METHODS (not described in main article)
The AsPC-1, BxPc-3, MIA PaCa-2, and PanC-1 pancreatic cancer cell lines were purchased from the American Type Culture Collection (ATCC) (Manassas, VA, USA). AsPC-1 and BxPc-3 cell lines were cultured in RPMI-1640 medium, and MIA PaCa-2 and PanC-1 in Dulbecco's Modified Eagle Medium (DMEM)/Ham's F12 medium mixture (1:1). The medium of all four pancreatic cancer cell lines was supplemented with 10 % fetal bovine serum (FBS), 100 U/ml penicillin, and 100 μg/ml streptomycin. The L56Br-C1 breast cancer cell line was established at Lund University (Lund, Sweden)1, and was cultured in RPMI-1640 medium supplemented with 10 % heat-inactivated FBS, 100 U/ml penicillin, 100 μg/ml streptomycin, 1 mM non-essential amino acids, and 10 µg/ml insulin. The MCF-10A normal-like breast cell line was obtained from ATCC and was cultured in the same medium mixture as L56Br-C1 with the addition of 20 ng/ml epidermal growth factor, 50 ng/ml cholera toxin, and 500 ng/ml hydrocortisone.
as §1
as §2, with “article. Experimental conditions used for each galectin” for “article.”

[4] = Caco-2 permeability assay; settings: human, Caco-2, pH 7.4
[5] = system: JIMT-1 cells; experiment: Cell proliferation assay (growth curves), JIMT-1; assay type: cell-based; settings: JIMT-1, 5 µM, up to 6 days
Experimental: JIMT-1 cells were seeded in 5 cm diameter Petri dishes at a density of 400 000 cells/Petri dish. […] The cells were harvested by trypsinization and the number of cells was determined by counting in a hemocytometer (each day for a total of 6 days).

Compound: OC[C@H]1O[C@@H](S[C@@H]2O[C@H](CO)[C@H](O)[C@H](n3cc(-c4cccc(F)c4)nn3)[C@H]2O)[C@H](O)[C@@H](n2cc(-c3cccc(F)c3)nn2)[C@H]1O [compound 1]
- effect in animal models of idiopathic pulmonary fibrosis (IPF) [1]: therapeutic effects
- toxicity (MTT) [2]: low toxicity
- cell proliferation (growth curves) [3]: no effect
- Papp A→B [4]: 0.07 ×10⁻⁶ cm/s
- Papp B→A [4]: 0.05 ×10⁻⁶ cm/s
- cell proliferation (growth curves) [5]: no effect on cell proliferation
